According to article PMC3485312, “A Phage Display Selected 7-mer Peptide Inhibitor of the Tannerella forsythia Metalloprotease-Like Enzyme Karilysin can be Truncated to Ser-Trp-Phe-Pro” (PLoS ONE, 2012):
Residues, ends and D or L forms follow the SMILES beside them.

Tests used:
[1] = target: T1, Kly18 (Karilysin catalytic domain) (Tannerella forsythia, UniProt D0EM77); conditions: cited from earlier work
T1 construct: Karilysin catalytic domain (Kly18) and intact Kly48 were produced as previously described; made in house
Text: The development of MMP inhibitors is highly relevant, due to the involvement of MMPs in several pathologies. Some candidate molecules act by blocking the MMP-active sites via binding to the catalytic Zn^2+ through chelators such as hydroxamate. These approaches have been successful for MMP inhibition. However, the inhibitors have a broad specificity towards other MMPs due to very similar active site geometries of matrix metalloproteinases. An alternative approach to specific MMP inhibitor design is to utilize larger molecules, such as peptides, that interact with the activ ...

[2] = target: T1, Kly18 (Karilysin catalytic domain); assay: biochemical; conditions: for Kly18 inhibitory activity, single concentration screen: 87 µM peptide
Protocol: (§1) Kly18 and Kly48 protease activities were monitored essentially as described. One hundred µl working volumes were used in black untreated polypropylene microtitre plates and FITC-casein was used as the substrate. Assays were performed at 37°C using 500 nM of Kly18 (or Kly48) in assay buffer (100 mM Tris-HCl, 5mM CaCl2, pH 8.0), at a FITC-casein concentration of 25 µg/ml. […] Peptides were dissolved in Milli Q water and added in varying molarities. The assay setup was as follows; Kly18 (or Kly48) was diluted in assay buffer together with peptide, followed by 30 minutes incubation on a vertical shaker at 22°C. Then FITC-casein was added and fluorescence formation was monitored at 37°C for 90 minutes with measurements every ten minutes.

intact Karilysin (Kly48) = target: T2, intact Karilysin (Kly48) (Tannerella forsythia, UniProt D0EM77); assay: Kly48 protease activity assay with FITC-casein substrate; format: biochemical; conditions: 500 nM Kly48, FITC-casein, peptide 2.3 µM to 55.6 µM; three experiments
T2 construct: made in house
Protocol: as §1

Karilysin (Kly48) = target: T3, Karilysin (Kly48) (Tannerella forsythia, UniProt D0EM77); assay: Auto-processing of Kly48 monitored by SDS-PAGE; format: biochemical; conditions: Kly48 13 µM, peptide 455 µM, 37°C, 50 mM Tris-HCl, 2.5 mM CaCl2, pH 8.0, up to 48 hours
T3 construct: made in house
Protocol: Karilysin (Kly48) at 13 µM was incubated at 37°C in 50 mM Tris-HCl, 2.5 mM CaCl2, 0.02% NaN3 pH 8.0 alone or in the presence of the peptide SWFPL at 455 µM. At different time points samples were withdrawn and the Kly48 autocatalytic processing was monitored by SDS-PAGE using 10% gels and the Tris-HCl/Tricine buffer system. Gels were stained with 0.1% Coomassie Brilliant Blue R-250 in 10% acetic acid followed by destaining. Samples were run alongside a Low Molecular Weight SDS-PAGE Marker.

T1 sequence (D0EM77 35-195): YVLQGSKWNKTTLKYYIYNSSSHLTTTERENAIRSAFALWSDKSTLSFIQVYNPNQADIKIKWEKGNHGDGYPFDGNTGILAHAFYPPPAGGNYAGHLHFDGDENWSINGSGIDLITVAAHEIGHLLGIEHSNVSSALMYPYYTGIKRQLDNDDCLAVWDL
T3 sequence (D0EM77 35-472): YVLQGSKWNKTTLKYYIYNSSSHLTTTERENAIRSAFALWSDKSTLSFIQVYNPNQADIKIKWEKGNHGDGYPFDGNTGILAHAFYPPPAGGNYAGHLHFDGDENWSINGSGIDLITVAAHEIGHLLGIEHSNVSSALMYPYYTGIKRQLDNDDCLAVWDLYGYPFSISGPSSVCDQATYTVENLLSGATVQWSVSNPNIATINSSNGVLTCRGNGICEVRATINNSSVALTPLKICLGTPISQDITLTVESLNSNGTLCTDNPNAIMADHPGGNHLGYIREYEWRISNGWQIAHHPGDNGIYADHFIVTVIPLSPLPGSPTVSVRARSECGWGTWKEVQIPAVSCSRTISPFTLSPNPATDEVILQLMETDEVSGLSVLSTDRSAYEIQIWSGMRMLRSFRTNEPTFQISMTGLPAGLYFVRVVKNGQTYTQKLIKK
T2 sequence (D0EM77 35-472): as above

## c1cnc2c(c1)ccc1cccnc12 [1,10-phenanthroline]
[1]
  Inhibition of Kly18 by small molecule chelators: inhibited

## NC(=O)[C@@H]1CCCN1C(=O)[C@H](Cc1ccccc1)NC(=O)[C@H](Cc1c[nH]c2ccccc12)NC(=O)[C@@H](N)CO [15-7, (NH2)-SWFP-(CONH2)] (H-SWFP-NH2)
[2]
  Ki: 10.7 ± 2.25 µM
[2]; FITC-casein substrate
  Kly18 inhibitory activity, single concentration screen: retained efficient inhibitory potency

## O=C(O)CN(CCN(CC(=O)O)CC(=O)O)CC(=O)O [EDTA]
[1]
  Inhibition of Kly18 by small molecule chelators: inhibited

## (NH2)-WFP-(CONH2) [15-8]
[2]; FITC-casein substrate
  Kly18 inhibitory activity, single concentration screen: lost most or all of their Kly18 inhibition capacity
[2]; FITC-casein substrate, listed as (NH2)-WFP-(CONH2)
  Kly18 inhibitory activity, single concentration screen: completely inactive

## (NH2)-WFPL-(CONH2) [15-15]
[2]; FITC-casein substrate
  Kly18 inhibitory activity, single concentration screen: lost most or all of their Kly18 inhibition capacity

## (NH2)-WFPLR-(CONH2) [15-14]
[2]; FITC-casein substrate
  Kly18 inhibitory activity, single concentration screen: lost most or all of their Kly18 inhibition capacity

## H-SAAALRSGGGS-NH2 [control peptide, control peptide with the WFP motif replaced by a triple alanine, reference compound]
[2]; 174 µM peptide, FITC-casein substrate, two experiments
  Kly18 inhibition at very high dose: curve similar to that of Kly18 with no peptide present

## H-SWAPLRSGGGS-NH2 [15-16]
[2]; FITC-casein substrate
  Kly18 inhibitory activity, single concentration screen: inactive

## H-SWFPL-NH2 [15-6, (NH2)-SWFPL-(CONH2)]
[2]
  Ki: 8.36 ± 2.34 µM
Intact Karilysin (Kly48)
  Inhibition of Kly48 proteolytic activity (dose-response): clear dose-response inhibition
Karilysin (Kly48)
  Effect on Kly48 auto-processing to Kly38 and Kly18: inhibited the auto-processesing efficiently

## H-SWFPLR-NH2 [15-5, (NH2)-SWFPLR-(CONH2)]
[2]
  Ki: 6.52 ± 0.88 µM

## H-SWFPLRSGGGS-NH2 [15-0]
[2]
  Ki: 5.34 ± 0.51 µM

## H-WFPLRS-NH2 [15-13]
[2]; FITC-casein substrate
  Kly18 inhibitory activity, single concentration screen: lost most or all of their Kly18 inhibition capacity

## H-WFPLRSG-NH2 [15-12]
[2]; FITC-casein substrate
  Kly18 inhibitory activity, single concentration screen: lost most or all of their Kly18 inhibition capacity

## H-WFPLRSGG-NH2 [15-11]
[2]; FITC-casein substrate
  Kly18 inhibitory activity, single concentration screen: lost most or all of their Kly18 inhibition capacity

## H-WFPLRSGGG-NH2 [15-10]
[2]; FITC-casein substrate
  Kly18 inhibitory activity, single concentration screen: lost most or all of their Kly18 inhibition capacity
